Read-outs that look alike come from different tables or passages of the source.
Biological target: hT2R8 (Homo sapiens (Human), UniProt Q9NYW2)
Assay: hT2R8 antagonist high-throughput FLIPR assay, stable cell line with G16g44, agonist andrographolide
Format: cell-based
Procedure, shortened: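 Antagonist screen: compounds co-applied with agonist andrographolide at 200 μM, a dose giving 70–80% of maximal hT2R8 activation. Fluorescence measured by FLIPR in a stable HEK293 line expressing both hT2R8 and the promiscuous G16g44 protein.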

[1] = read-out: IC50 on hT2R8 bitter receptor
[2] = table after Example 10-97, read-out: hT2R8 IC50
[3] = unit uM, read-out: IC50 on hT2R08 bitter receptor
[4] = table after Example 12-37, read-out: hT2R8 IC50

Chain of hT2R8 (Q9NYW2 whole entry): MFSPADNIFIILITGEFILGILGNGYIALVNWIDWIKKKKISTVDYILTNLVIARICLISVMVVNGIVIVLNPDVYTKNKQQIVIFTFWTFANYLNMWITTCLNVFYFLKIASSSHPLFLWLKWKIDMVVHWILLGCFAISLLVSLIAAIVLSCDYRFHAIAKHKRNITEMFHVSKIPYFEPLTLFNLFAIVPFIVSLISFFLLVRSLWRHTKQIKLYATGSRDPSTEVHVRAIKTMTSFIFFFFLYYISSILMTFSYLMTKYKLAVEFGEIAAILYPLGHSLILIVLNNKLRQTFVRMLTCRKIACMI

IC50 [1] | IC50 (Table A, read-out: hT2R8 IC50) | IC50 [2] | SMILES | further results
0.04 µM |  | 0.479 µM | Cc1noc(C)c1CN1CC(=O)N(c2cnn(Cc3c(C)noc3C)c2)C1=O [Example 10-55, 1-((3,5-dimethylisoxazol-4-yl)methyl)-3-(1-((3,5-dimethylisoxazol-4-yl)methyl)-1H-pyrazol-4-yl)imidazolidine-2,4-dione] | 
0.26 µM |  | 0.068 µM | Cc1noc(C)c1Cn1cc(N2C(=O)CN(CCCc3ccccc3)C2=O)cn1 [Example 10-94, 3-(1-((3,5-dimethylisoxazol-4-yl)methyl)-1H-pyrazol-4-yl)-1-(3-phenylpropyl)imidazolidine-2,4-dione] | 
1.1 µM |  | 1.44 µM | Cc1noc(C)c1Cn1cc(N2C(=O)NC(C(C)C)C2=O)cn1 (stereo not drawn) [Example 10-62, 3-(1-((3,5-dimethylisoxazol-4-yl)methyl)-1H-pyrazol-4-yl)-5-isopropylimidazolidine-2,4-dione] | 
 |  | 0.048 µM | Cc1noc(C)c1Cn1cc(N2C(=O)CN(Cc3ccc(C#N)cc3)C2=O)cn1 [Example 10-32, 4-((3-(1-((3,5-dimethylisoxazol-4-yl)methyl)-1H-pyrazol-4-yl)-2,4-dioxoimidazolidin-1-yl)methyl)benzonitrile] | IC50 [3]: 0.05 µM
0.08 µM |  |  | Cc1noc(C)c1Cn1cc(N2C(=O)N(Cc3ccc(F)cc3)C(C)(C)C2=O)cn1 [Example 12-29, 3-(1-((3,5-dimethylisoxazol-4-yl)methyl)-1H-pyrazol-4-yl)-1-(4-fluorobenzyl)-5,5-dimethylimidazolidine-2,4-dione] | 
0.01 µM |  | 0.012 µM | Cc1noc(C)c1Cn1cc(-n2c(=O)n(C)n(CCc3ccc(F)cc3)c2=O)cn1 [Example 10-66, 4-(1-((3,5-dimethylisoxazol-4-yl)methyl)-1H-pyrazol-4-yl)-1-(4-fluorophenethyl)-2-methyl-1,2,4-triazolidine-3,5-dione] | 
 |  | 0.069 µM | Cc1noc(C)c1Cn1cc(N2C(=O)CN(Cc3ccccc3O)C2=O)cn1 [Example 10-11, 3-(1-((3,5-dimethylisoxazol-4-yl)methyl)-1H-pyrazol-4-yl)-1-(2-hydroxybenzyl)imidazolidine-2,4-dione] | IC50 [3]: 0.07 µM
 |  | 0.163 µM | Cc1noc(C)c1Cn1cc(N2C(=O)CN(Cc3ccccc3N)C2=O)cn1 [Example 10-34, 1-(2-aminobenzyl)-3-(1-((3,5-dimethylisoxazol-4-yl)methyl)-1H-pyrazol-4-yl)imidazolidine-2,4-dione] | IC50 [3]: 0.02 µM
0.06 µM |  | 0.062 µM | CCCn1c(=O)n(-c2cnn(Cc3c(C)noc3C)c2)c(=O)n1Cc1ccccc1 [Example 10-93, 1-benzyl-4-(1-((3,5-dimethylisoxazol-4-yl)methyl)-1H-pyrazol-4-yl)-2-propyl-1,2,4-triazolidine-3,5-dione] | 
0.23 µM |  |  | Cc1cc(CN2C(=O)N(c3cnn(Cc4c(C)noc4C)c3)C(=O)C2(C)C)n(C)n1 [Example 12-26, 1-((1,3-dimethyl-1H-pyrazol-5-yl)methyl)-3-(1-((3,5-dimethylisoxazol-4-yl)methyl)-1H-pyrazol-4-yl)-5,5-dimethylimidazolidine-2,4-dione] | 
0.11 µM |  |  | COc1ccc(CN2C(=O)N(c3cnn(Cc4c(C)noc4C)c3)C(=O)C2(C)C)cc1 [Example 12-33, 3-(1-((3,5-dimethylisoxazol-4-yl)methyl)-1H-pyrazol-4-yl)-1-(4-methoxybenzyl)-5,5-dimethylimidazolidine-2,4-dione] | 
 |  | 0.09 µM | Cc1noc(C)c1Cn1cc(N2C(=O)CN(Cc3ccccc3F)C2=O)cn1 [Example 10-21, 3-(1-((3,5-dimethylisoxazol-4-yl)methyl)-1H-pyrazol-4-yl)-1-(2-fluorobenzyl)imidazolidine-2,4-dione] | IC50 [3]: 0.08 µM
0.3 µM |  |  | COc1cc(CN2C(=O)N(c3cnn(Cc4c(C)noc4C)c3)C(=O)C2(C)C)cc(OC)c1 [Example 12-18, 1-(3,5-dimethoxybenzyl)-3-(1-((3,5-dimethylisoxazol-4-yl)methyl)-1H-pyrazol-4-yl)-5,5-dimethylimidazolidine-2,4-dione] | 
0.13 µM |  | 0.131 µM | COc1cccc(CC2NC(=O)N(c3cnn(Cc4c(C)noc4C)c3)C2=O)c1 (stereo not drawn) [Example 10-56, 3-(1-((3,5-dimethylisoxazol-4-yl)methyl)-1H-pyrazol-4-yl)-5-(3-methoxybenzyl)imidazolidine-2,4-dione] | 
 |  | 0.087 µM | COc1ccc(CN2CC(=O)N(c3cnn(Cc4c(C)noc4C)c3)C2=O)cc1O [Example 10-13, 3-(1-((3,5-dimethylisoxazol-4-yl)methyl)-1H-pyrazol-4-yl)-1-(3-hydroxy-4-methoxybenzyl)imidazolidine-2,4-dione] | IC50 [3]: 0.1 µM
 |  | 0.412 µM | Cc1noc(C)c1Cn1cc(N2C(=O)CN(Cc3ccccc3[S+](C)[O-])C2=O)cn1 (stereo not drawn) [Example 10-17, 33-(1-((3,5-dimethylisoxazol-4-yl)methyl)-1H-pyrazol-4-yl)-1-(2-(methylsulfinyl)benzyl)imidazolidine-2,4-dione] | IC50 [3]: 0.4 µM

The remaining lines, values behind:

SMILES | IC50 [1] | IC50 (Table A, read-out: hT2R8 IC50) | IC50 [2] | further results
Cc1noc(C)c1Cn1cc(NC(=O)c2ccc3c(c2)OCO3)cn1 [Example 4-8, N-(1-((3,5-dimethylisoxazol-4-yl)methyl)-1H-pyrazol-4-yl)benzo[d][1,3]dioxole-5-carboxamide] | 0.2 µM |  |  | 
Cc1cc(C(=O)Nc2cnn(Cc3c(C)noc3C)c2)n(C)n1 [Example 4-52, N-(1-((3,5-dimethylisoxazol-4-yl)methyl)-1H-pyrazol-4-yl)-1,3-dimethyl-1H-pyrazole-5-carboxamide] |  | 18.1 µM |  | 
Cc1noc(C)c1Cn1cc(NC(=O)c2ccoc2C)cn1 [Example 4-51, N-(1-((3,5-dimethylisoxazol-4-yl)methyl)-1H-pyrazol-4-yl)-2-methylfuran-3-carboxamide] |  | 7.87 µM |  | 
Cc1ccccc1NC(=S)Nc1cnn(Cc2c(C)noc2C)c1 [Example 4-108, 1-(1-((3,5-dimethylisoxazol-4-yl)methyl)-1H-pyrazol-4-yl)-3-o-tolylthiourea] |  | 3.01 µM |  | 
Cc1noc(C)c1Cn1cc(NC(=O)[C@H](C)c2ccccc2)cn1 [Example 4-42, (R)-N-(1-((3,5-dimethylisoxazol-4-yl)methyl)-1H-pyrazol-4-yl)-2-phenylpropanamide] |  | 3.72 µM |  | 
COc1cc(C(=O)Nc2cnn(Cc3c(C)noc3C)c2)cc(O)c1O [Example 4-73, N-(1-((3,5-dimethylisoxazol-4-yl)methyl)-1H-pyrazol-4-yl)-3,4-dihydroxy-5-methoxybenzamide] | 2.2 µM | 2.2 µM |  | 
CC(=O)OC(C(=O)Nc1cnn(Cc2c(C)noc2C)c1)c1ccccc1 (stereo not drawn) [Example 4-39, 2-(1-((3,5-dimethylisoxazol-4-yl)methyl)-1H-pyrazol-4-ylamino)-2-oxo-1-phenylethyl acetate] |  | 0.83 µM |  | 
COC(=O)c1ccc(CN2C(=O)N(c3cnn(Cc4c(C)noc4C)c3)C(=O)C2(C)C)cc1 [Example 12-57, methyl 4-((3-(1-((3,5-dimethylisoxazol-4-yl)methyl)-1H-pyrazol-4-yl)-5,5-dimethyl-2,4-dioxoimidazolidin-1-yl)methyl)benzoate] |  |  |  | IC50 [4]: 0.23 µM
Cc1noc(C)c1Cn1cc(NC(=O)c2ccc(F)cc2)cn1 [Example 4-23, N-(1-((3,5-dimethylisoxazol-4-yl)methyl)-1H-pyrazol-4-yl)-4-fluorobenzamide] |  | 1.56 µM |  | 
Cc1cccc(CN2C(=O)N(c3cnn(Cc4c(C)noc4C)c3)C(=O)C2(C)C)c1F [Example 12-82, 3-(1-((3,5-dimethylisoxazol-4-yl)methyl)-1H-pyrazol-4-yl)-1-(2-fluoro-3-methylbenzyl)-5,5-dimethylimidazolidine-2,4-dione] |  |  |  | IC50 [4]: 0.81 µM
Cc1noc(C)c1Cn1cc(N2C(=O)N(Cc3cccc(C#N)c3)C(C)(C)C2=O)cn1 [Example 12-42, 3-((3-(1-((3,5-dimethylisoxazol-4-yl)methyl)-1H-pyrazol-4-yl)-5,5-dimethyl-2,4-dioxoimidazolidin-1-yl)methyl)benzonitrile] |  |  |  | IC50 [4]: 0.09 µM
Cc1noc(C)c1Cn1cc(NC(=S)NCc2ccccc2)cn1 [Example 4-110, 1-benzyl-3-(1-((3,5-dimethylisoxazol-4-yl)methyl)-1H-pyrazol-4-yl)thiourea] |  | 1.1 µM |  | 
Cc1noc(C)c1Cn1cc(NC(=O)c2cccc(S(C)(=O)=O)c2)cn1 [Example 4-26, N-(1-((3,5-dimethylisoxazol-4-yl)methyl)-1H-pyrazol-4-yl)-3-(methylsulfonyl)benzamide] |  | 0.72 µM |  | 
COC(=O)COc1cccc(CN2C(=O)N(c3cnn(Cc4c(C)noc4C)c3)C(=O)C2(C)C)c1 [Example 12-75, methyl 2-(3-((3-(1-((3,5-dimethylisoxazol-4-yl)methyl)-1H-pyrazol-4-yl)-5,5-dimethyl-2,4-dioxoimidazolidin-1-yl)methyl)phenoxy)acetate] |  |  |  | IC50 [4]: 0.53 µM
COc1cccc(C(=O)Nc2cn(Cc3c(C)noc3C)nc2C)c1 [Example 4-115, N-(1-((3,5-dimethylisoxazol-4-yl)methyl)-3-methyl-1H-pyrazol-4-yl)-3-methoxybenzamide] |  | 9.25 µM |  | 
Cc1noc(C)c1Cn1cc(NC(=O)c2cc(Cl)c3c(c2)OCCO3)cn1 [Example 4-91, 8-chloro-N-(1-((3,5-dimethylisoxazol-4-yl)methyl)-1H-pyrazol-4-yl)-2,3-dihydrobenzo[b][1,4]dioxine-6-carboxamide] |  | 0.1 µM |  | 
Cc1noc(C)c1Cn1cc(NC(=O)c2ccc3occc3c2)cn1 [Example 4-77, N-(1-((3,5-dimethylisoxazol-4-yl)methyl)-1H-pyrazol-4-yl)benzofuran-5-carboxamide] |  | 1.4 µM |  | 
COc1ccc(O)c(C(=O)Nc2cnn(Cc3c(C)noc3C)c2)c1 [Example 4-27, N-(1-((3,5-dimethylisoxazol-4-yl)methyl)-1H-pyrazol-4-yl)-2-hydroxy-5-methoxybenzamide] |  | 0.98 µM |  | 
Cc1noc(C)c1Cn1cc(NC(=O)C2(c3ccccc3)CC2)cn1 [Example 4-11, N-(1-((3,5-dimethylisoxazol-4-yl)methyl)-1H-pyrazol-4-yl)-1-phenylcyclopropanecarboxamide] | 0.25 µM |  |  | 

Reference: US9247759B2, “Identification of human T2R receptors that respond to bitter compounds that elicit the bitter taste in compositions, and the use thereof in assays to identify compounds that inhibit (block) bitter taste in compositions and use thereof” (SENOMYX, INC., priority 2007, dated 2016)
